The values below come from patent US20240228489A1, “POSITIVE ALLOSTERIC MODULATORS OF THE MUSCARINIC ACETYLCHOLINE RECEPTOR M1” (Vanderbilt University, priority 2021, published 2024).

Some results are limits rather than exact numbers.

Test [1] concerns the target T1, human mAChR M1 (Homo sapiens, UniProt P11229).
T1 sequence (P11229 1-460): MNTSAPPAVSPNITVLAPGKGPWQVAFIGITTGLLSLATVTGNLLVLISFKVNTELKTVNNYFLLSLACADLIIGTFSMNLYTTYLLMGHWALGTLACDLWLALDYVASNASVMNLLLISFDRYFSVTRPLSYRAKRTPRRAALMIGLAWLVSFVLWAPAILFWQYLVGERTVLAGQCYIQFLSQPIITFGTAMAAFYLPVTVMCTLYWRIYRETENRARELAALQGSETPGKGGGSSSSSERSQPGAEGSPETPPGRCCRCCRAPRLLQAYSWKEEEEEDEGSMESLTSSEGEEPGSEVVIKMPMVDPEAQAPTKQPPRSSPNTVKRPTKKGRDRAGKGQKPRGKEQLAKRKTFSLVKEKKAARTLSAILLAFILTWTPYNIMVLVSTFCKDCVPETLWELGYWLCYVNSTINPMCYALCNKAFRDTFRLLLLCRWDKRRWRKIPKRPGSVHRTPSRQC
Nature of the test: mAChR M1 cell-based functional assay (calcium mobilization), agonist mode: compound alone, Emax relative to acetylcholine maximum. The settings on record: for EC50 / Agonist Activity Human M1 EC50: human mAChR M1; for Emax: relative to the maximum for acetylcholine. The procedure, abridged:
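CHO-K1 cells stably expressing hM1 were loaded with Fluo-4 AM, and calcium flux was read as fluorescence ratio. Compound was added alone from an 11-point 1:3 curve, and the agonist response was fitted with a four-parameter logistic. Emax is expressed relative to the acetylcholine maximum.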
(Calcium flux is commonly read through the fluorescence of an indicator in the cells.)

In test [2] the target is T1, human mAChR M1. Nature of the test: mAChR M1 cell-based functional assay (calcium mobilization), PAM mode: increase in the EC20 acetylcholine response. The procedure, abridged:
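CHO-K1 cells stably expressing hM1, Fluo-4 loaded, read by FDSS calcium flux at 1 Hz. Compound (11-point 1:3 CRC) added at 4 s, EC20 acetylcholine at 144 s, EC80 at 230 s. PAM activity taken as concentration-dependent increase in EC20 ACh response, fitted by four-parameter logistic for EC50/Emax.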

What is called EC50 is the midpoint of the concentration-response curve. The term Emax denotes the maximal effect, on the per cent scale that the assay sets. Turning to `[2H]C1([2H])c2ncccc2C(=O)N1Cc1c(C)cc(-c2ccc(OC)c3nn(C)cc23)cc1F` [Compound 195, 6-(2-fluoro-4-(7-methoxy-2-methyl-2H-indazol-4-yl)-6-methylbenzyl)-6,7-dihydro-5H-pyrrolo[3,4-b]pyridin-5-one-7,7-d2], the concentration for a half-maximal effect (EC50) worked out at 3730 nM at human mAChR M1 [1] and 198 nM at human mAChR M1 [2]. In addition, the maximal response (Emax) amounted to 43% on human mAChR M1 [1] and 79% at human mAChR M1 [2].

Consider `[2H]C1([2H])c2ncccc2C(=O)N1Cc1c(F)cc(-c2cnc(OC)c3nn(C)cc23)cc1F` [Compound 121, 6-(2,6-difluoro-4-(7-methoxy-2-methyl-2H-pyrazolo[3,4-c]pyridin-4-yl)benzyl)-6,7-dihydro-5H-pyrrolo[3,4-b]pyridin-5-one-7,7-d2], for which, on human mAChR M1 [1], the “Agonist Activity Human M1 EC50” value was “Inactive” and the Emax was 3%. Further, on human mAChR M1 [2], the half-maximal effective concentration (EC50) came out at 2920 nM and the maximum response (Emax) stood at 55%.

With `[2H]C([2H])([2H])Oc1cnc2c(c1)C(=O)N(Cc1ccc(-c3ccc(OC)c4nn(C)cc34)cc1F)C2([2H])[2H]` [Compound 142, 6-(2-fluoro-4-(7-methoxy-2-methyl-2H-indazol-4-yl)benzyl)-3-(methoxy-d3)-6,7-dihydro-5H-pyrrolo[3,4-b]pyridin-5-one-7,7-d2], at human mAChR M1 [1], the EC50 is 6060 nM and the maximal effect (Emax) is 13%. Moreover, on human mAChR M1 [2], the EC50 was found to be 215 nM and the maximal response (Emax) stood at 81%.

For the compound `[2H]C1([2H])c2ncccc2C(=O)N1Cc1c(F)cc(-c2ccc(OC[C@@H](C)OC)c3nn(C)cc23)cc1F` [Compound 172, (R)-6-(2,6-difluoro-4-(7-(2-methoxypropoxy)-2-methyl-2H-indazol-4-yl)benzyl)-6,7-dihydro-5H-pyrrolo[3,4-b]pyridin-5-one-7,7-d2], the EC50 on human mAChR M1 [1] was no less than 10000 nM; on human mAChR M1 [2] it was 354 nM. For the same compound, the maximum response (Emax) turned out to be 27% at human mAChR M1 [1] and 82% at human mAChR M1 [2].

With `[2H]C([2H])([2H])Oc1ccc(-c2cc(F)c(CN3C(=O)c4cccnc4C3([2H])[2H])c(F)c2)c2cn(C([2H])([2H])[2H])nc12` [Compound 94, 6-(2,6-difluoro-4-(7-(methoxy-d3)-2-(methyl-d3)-2H-indazol-4-yl)benzyl)-6,7-dihydro-5H-pyrrolo[3,4-b]pyridin-5-one-7,7-d2], the EC50 is 3540 nM at human mAChR M1 [1] and 139 nM at human mAChR M1 [2]. Also, the maximal effect (Emax) on human mAChR M1 [1] was 19%; at human mAChR M1 [2], 76%.

Take `[2H]C1([2H])c2ncccc2C(=O)N1Cc1ccc(-c2ccc(OCCOC(C)C)c3nn(C)cc23)cc1F` [Compound 153, 6-(2-fluoro-4-(7-(2-isopropoxyethoxy)-2-methyl-2H-indazol-4-yl)benzyl)-6,7-dihydro-5H-pyrrolo[3,4-b]pyridin-5-one-7,7-d2]: on human mAChR M1 [1], the concentration giving a half-maximal response (EC50) was no less than 10000 nM and the Emax came out at 15%. Further, at human mAChR M1 [2], the half-maximal effective concentration (EC50) was found to be 1340 nM and the Emax came out at 79%.

`[2H]C1([2H])c2ncccc2C(=O)N1Cc1c(F)cc(-c2ccn3ccnc3c2)cc1F` [Compound 5, 6-(2,6-difluoro-4-(imidazo[1,2-a]pyridin-7-yl)benzyl)-6,7-dihydro-5H-pyrrolo[3,4-b]pyridin-5-one-7,7-d2]: at human mAChR M1 [1], the “Agonist Activity Human M1 EC50” value is on record as “Inactive” and the Emax stood at 2%. In addition, on human mAChR M1 [2], the EC50 was 977 nM and the Emax was 40%.

Consider `[2H]C1([2H])c2ncccc2C(=O)N1Cc1ccc(-c2ccc(OCCOC)c3nn(C)cc23)cc1F` [Compound 116, 6-(2-fluoro-4-(7-(2-methoxyethoxy)-2-methyl-2H-indazol-4-yl)benzyl)-6,7-dihydro-5H-pyrrolo[3,4-b]pyridin-5-one-7,7-d2], for which, at human mAChR M1 [1], the EC50 is 9430 nM and the Emax was 21%. Also, at human mAChR M1 [2], the EC50 turned out to be 287 nM and the Emax turned out to be 72%.

For `[2H]C1([2H])c2ncccc2C(=O)N1Cc1ccc(-c2ccc(OC3CN(C(=O)OC(C)(C)C)C3)c3nn(C)cc23)cc1F` [Compound 176, tert-butyl 3-((4-(3-fluoro-4-((5-oxo-5,7-dihydro-6H-pyrrolo[3,4-b]pyridin-6-yl-7,7-d2)methyl)phenyl)-2-methyl-2H-indazol-7-yl)oxy)azetidine-1-carboxylate], at human mAChR M1 [1], the “Agonist Activity Human M1 EC50” value is reported as “Inactive” and the Emax was determined as 2%. Besides, at human mAChR M1 [2], the EC50 amounted to 1320 nM and the Emax was 60%.

With `[2H]C1([2H])c2ncccc2C(=O)N1Cc1c(F)cc(-c2cnc(OC)c3c2cnn3C)cc1F` [Compound 253, 6-(2,6-difluoro-4-(7-methoxy-1-methyl-1H-pyrazolo[3,4-c]pyridin-4-yl)benzyl)-6,7-dihydro-5H-pyrrolo[3,4-b]pyridin-5-one-7,7-d2], at human mAChR M1 [1], the “Agonist Activity Human M1 EC50” value was “Inactive” and the maximal response (Emax) turned out to be 2%. On human mAChR M1 [2], the concentration for a half-maximal effect (EC50) was greater than 10000 nM and the Emax is 27%.

As to `[2H]C1([2H])c2ncccc2C(=O)N1Cc1ccc(-c2cccc3nn(C)cc23)cc1` [Compound 11, 6-(4-(2-methyl-2H-indazol-4-yl)benzyl)-6,7-dihydro-5H-pyrrolo[3,4-b]pyridin-5-one-7,7-d2], on human mAChR M1 [1], the “Agonist Activity Human M1 EC50” value is recorded as “Inactive” and the Emax was found to be 6%. On human mAChR M1 [2], the EC50 is 1300 nM and the maximum response (Emax) came to 77%.

Turning to `[2H]C1([2H])c2ncccc2C(=O)N1Cc1c(F)cc(-c2ccc(C3CC3)c3nn(C)cc23)cc1F` [Compound 122, 6-(4-(7-cyclopropyl-2-methyl-2H-indazol-4-yl)-2,6-difluorobenzyl)-6,7-dihydro-5H-pyrrolo[3,4-b]pyridin-5-one-7,7-d2], at human mAChR M1 [1], the “Agonist Activity Human M1 EC50” value is “Inactive” and the maximal effect (Emax) amounted to 3%. Further, at human mAChR M1 [2], the 50% effective concentration (EC50) came out at 789 nM and the maximal effect (Emax) was 77%.

Regarding `[2H]C1([2H])c2ncccc2C(=O)N1Cc1c(C)cc(-c2ccc(OC)c3nn(C([2H])([2H])[2H])cc23)cc1F` [Compound 159, 6-(2-fluoro-4-(7-methoxy-2-(methyl-d3)-2H-indazol-4-yl)-6-methylbenzyl)-6,7-dihydro-5H-pyrrolo[3,4-b]pyridin-5-one-7,7-d2], at human mAChR M1 [1], the concentration for a half-maximal effect (EC50) was found to be 6240 nM and the Emax was determined as 31%. At human mAChR M1 [2], the EC50 stood at 164 nM and the maximal effect (Emax) worked out at 83%.

Regarding `[2H]c1nnc2cccc(-c3ccc(CN4C(=O)c5cccnc5C4([2H])[2H])cc3)n12` [Compound 240, 6-(4-([1,2,4]triazolo[4,3-a]pyridin-5-yl-3-d)benzyl)-6,7-dihydro-5H-pyrrolo[3,4-b]pyridin-5-one-7,7-d2], on human mAChR M1 [1], the “Agonist Activity Human M1 EC50” value is “Inactive” and the Emax is 3%. On human mAChR M1 [2], the EC50 was greater than 10000 nM and the maximum response (Emax) turned out to be 27%.

For the compound `[2H]C1([2H])c2ncccc2C(=O)N1Cc1c(F)cc(-c2ccc(OC3CCOC3)c3nn(C)cc23)cc1F` (stereo not shown) [Compound 127, 6-(2,6-difluoro-4-(2-methyl-7-((tetrahydrofuran-3-yl)oxy)-2H-indazol-4-yl)benzyl)-6,7-dihydro-5H-pyrrolo[3,4-b]pyridin-5-one-7,7-d2], on human mAChR M1 [1], the EC50 turned out to be 8400 nM and the Emax was 21%. At human mAChR M1 [2], the concentration for a half-maximal effect (EC50) is 486 nM and the Emax amounted to 65%.

`[2H]C1([2H])c2ncccc2C(=O)N1Cc1c(F)cc(-c2cccc3c2cnn3C)cc1F` [Compound 35, 6-(2,6-difluoro-4-(1-methyl-1H-indazol-4-yl)benzyl)-6,7-dihydro-5H-pyrrolo[3,4-b]pyridin-5-one-7,7-d^2]: at human mAChR M1 [1], the half-maximal effective concentration (EC50) is greater than 10000 nM and the Emax was 2%. Further, at human mAChR M1 [2], the EC50 came to 2420 nM and the Emax turned out to be 63%.
